Measurements: patent US7053097B1, “Inhibitors of glycogen synthase 3 kinase” (Chiron Corporation, priority 1996, dated 2006)

Biological target: GSK-3β (Homo sapiens, UniProt P49841)
Test: GSK3 kinase inhibition assay, biotin-phosphopeptide substrate, streptavidin plate scintillation counting
Assay type: biochemical
Conditions: compound at 1 μM; 180 min at room temperature
Procedure: (B) The compounds prepared in Example 1 above were assayed for activity as follows:
A 96-well round bottom plate was blocked by incubation with 400 μl/well 1% BSA/PBS for 60 min at room temperature. The blocking reagent was then aspirated. An enzyme/substrate buffer was prepared (1.225 ml 1M Tris-HCl, pH 7.5, 0.41 ml 1M MgCl2, 41 μl DTT, 250 μl 500 μg/ml GSK-3β, 9.5 μl 5 mg/ml biotin-phosphopeptide, 33.1 ml 1% BSA/PBS), and 300 μl enzyme/substrate/buffer was added to each well.
Varying concentrations of each compound were added to individual wells, or staurosporine in DMSO (final concentrations of staurosporine 100 nM or 20 nM). Next 50 μl/well ATP mixture (3.85 μl 10 mM cold ATP, 8 μl hot ATP, 5.5 ml H2O) was added, and the reaction allowed to proceed for 180 min at room temperature.
Three streptavidin-coated Labsystems Combiplate 8 plates were blocked with 1% BSA/PBS, 300 μl/well, for ≧60 min at room temperature, and the blocking reagent aspirated. Stopping reagent (50 μM ATP, 20 mM EDTA) (100 μl/well) was added to the streptavidin-coated plates, and 100 μl of the enzyme reaction mixture transferred to the streptavidin-coated plates in triplicate. […] Finally, Microscint-20 scintillation fluid (200 μl/well) was added to the plates, the plates sealed, and after incubating for 30 min, counted on a TopCount counter.

Chain of GSK-3β (P49841 whole entry, species assumed): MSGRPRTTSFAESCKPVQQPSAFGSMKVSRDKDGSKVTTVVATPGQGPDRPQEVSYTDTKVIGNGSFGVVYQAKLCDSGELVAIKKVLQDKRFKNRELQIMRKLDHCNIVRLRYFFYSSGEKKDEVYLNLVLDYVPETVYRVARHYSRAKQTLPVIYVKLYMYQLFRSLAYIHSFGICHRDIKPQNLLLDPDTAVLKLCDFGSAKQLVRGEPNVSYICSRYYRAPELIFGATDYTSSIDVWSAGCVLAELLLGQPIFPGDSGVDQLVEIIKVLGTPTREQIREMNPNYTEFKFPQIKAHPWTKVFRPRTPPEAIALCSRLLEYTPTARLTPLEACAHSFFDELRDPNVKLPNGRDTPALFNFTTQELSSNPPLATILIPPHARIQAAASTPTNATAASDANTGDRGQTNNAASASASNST

COCC(=O)N(CC(N)=O)c1nc(NCc2ccc(C(F)(F)F)cc2)c2ncn(C)c2n1 [Compound 21208]
inhibition at 1 µM: 63%
